Molecules are shown by their SMILES. Some results are limits rather than exact numbers.

The subject of data set [1] is rat. The conditions noted are these: Subchronic oral toxicity in rodents, wistar, Feed, dose end: 90 day, group: systemic, systemic / in life observation / body weight / body weight + systemic / in life observation / food consumption / food consumption + systemic….
Data set [2] relates to rat. The conditions noted are these: Subchronic oral toxicity in rodents, other, Feed, dose end: 90 day, group: systemic.
Data set [3] concerns mouse. The conditions noted are these: Prenatal developmental toxicity study, cd1, Oral, Gavage/Intubation, dose end: 14 GD.
Data set [4] deals with mouse. The conditions noted are these: Subchronic oral toxicity in rodents, cd1, Feed, dose end: 90 day, group: systemic.
For data set [5], the system named is dog. Particulars: Chronic toxicity; beagle; Oral; Capsule; dose end: 12 month; group: cholinesterase; cholinesterase / cholinesterase / cholinesterase / plasma cholinesterase (che).
Data set [6] relates to rat. The conditions noted are these: Multigenerational reproductive toxicity study, sprague dawley, Oral, Water, dose end: 2 generation, group: parental.
Data set [7] concerns mouse. The conditions noted are these: Subchronic oral toxicity in rodents, b6c3f1, Gavage/Intubation, dose end: 13 week, group: systemic.
Data set [8] concerns mouse. Particulars: Carcinogenicity; b6c3f1; Oral; Gavage/Intubation; dose end: 2 year; group: systemic; systemic / in life observation / body weight / body weight + systemic / in life observation / clinical signs / [other] + systemic / in life ….
Data set [9] relates to rat. The conditions noted are these: Prenatal developmental toxicity study; sprague dawley; Oral; Gavage/Intubation; dose end: 15 GD; group: maternal; systemic / in life observation / body weight / body weight gain.
For data set [10], the system named is rat. Particulars: Subchronic oral toxicity in rodents, fischer, Gavage/Intubation, dose end: 13 week, group: systemic.
For data set [11], the system named is rat. The conditions noted are these: Combined chronic toxicity/carcinogenicity; fischer; Oral; Gavage/Intubation; dose end: 2 year; group: systemic; systemic / in life observation / clinical signs / ataxia + systemic / in life observation / clinical signs / prostration + systemic / in ….
The subject of data set [12] is rat. The conditions noted are these: Carcinogenicity; fischer; Oral; Water; dose end: 104 week; group: systemic; systemic / in life observation / water consumption / water consumption.
Data set [13] has as its system mouse. The conditions noted are these: Multigenerational reproductive toxicity study, other, Oral, Feed, dose end: 1 generation.
The subject of data set [14] is rat. Particulars: Multigenerational reproductive toxicity study, sprague dawley, Oral, Feed, dose end: 2 generation.
For data set [15], the system named is rat. The conditions noted are these: Prenatal developmental toxicity study, wistar, Oral, Gavage/Intubation, dose end: 15 GD.
In data set [16] the test system is rat. Particulars: Subchronic oral toxicity in rodents, fischer, Feed, dose end: 13 week, group: systemic.
Data set [17] concerns rat. The conditions noted are these: Developmental neurotoxicity study, sprague dawley, Inhalation, Whole-Body, dose end: 2 generation, group: cannot be grouped.
Setting [18] is: systemic / in life observation / food consumption / food consumption.
Setting [19] is: systemic / in life observation / food consumption / food consumption + systemic / in life observation / body weight / body weight + systemic….
[20] abbreviates: group: developmental, systemic / in life observation / body weight / offspring (pup) weight.
[21] abbreviates: group: maternal, systemic / in life observation / mortality / mortality.
Setting [22] is: systemic / in life observation / body weight / body weight gain + systemic / organ weight / heart / relative to body weight + systemic / ….
Setting [23] is: systemic / in life observation / body weight / body weight gain + systemic / in life observation / water consumption / water consumption + ….
Where [24] appears, read: systemic / organ weight / adrenal gland / absolute + systemic / organ weight / adrenal gland / relative to body weight.
Where [25] appears, read: systemic / organ weight / adrenal gland / absolute + systemic / organ weight / adrenal gland / relative to body weight + systemic / in life ….
Setting [26] is: systemic / in life observation / clinical signs / tremors + systemic / in life observation / mortality / mortality + systemic / organ weight….
[27] abbreviates: group: offspring, systemic / in life observation / body weight / litter weight + systemic / in life observation / body weight / offspring (pup) weight + ….
[28] abbreviates: group: reproductive, reproductive / reproductive performance / mating / mating + reproductive / reproductive performance / estrous cycle / length + reproductive….
Setting [29] is: group: offspring, developmental / developmental malformation / testes / delayed descent + developmental / developmental landmark / preputial separation / ….
Where [30] appears, read: group: parental, systemic / in life observation / body weight / body weight + systemic / organ weight / adrenal gland / relative to body weight + systemic / ….
Where [31] appears, read: group: reproductive, reproductive / reproductive performance / estrous cycle / periodicity + reproductive / reproductive performance / fertility / fertility.
Where [32] appears, read: group: developmental, systemic / in life observation / body weight / fetal weight + developmental / developmental malformation / mouth / jaw / cleft palate.
Where [33] appears, read: group: maternal, reproductive / reproductive performance / postimplantation loss / postimplantation loss + reproductive / reproductive performance / ….
[34] abbreviates: systemic / clinical chemistry / albumin / albumin + systemic / clinical chemistry / triglycerides / triglycerides.
Where [35] appears, read: systemic / clinical chemistry / alkaline phosphatase (alp/alk) / alkaline phosphatase (alp/alk) + systemic / clinical chemistry / bile acids….

Consider `CCOCCOCCO` [2-(2-Ethoxyethoxy)ethanol], for which the LEL in data set [1] worked out at 2500 mg/kg/day; in data set [2] (setting [18]) it was 250 mg/kg/day; in [3] (setting [20]), 5500 mg/kg/day; in data set [3] (setting [21]) it was 5500 mg/kg/day; in data set [4] (systemic / in life observation / body weight / body weight gain + systemic / organ weight / kidney / relative to body weight) it was 2700 mg/kg/day. Besides, the LOAEL – broadly, the lowest dose or exposure tested at which an adverse effect was seen – is over 2500 mg/kg/day in [1]; over 2500 mg/kg/day in data set [2] (setting [19]); over 5500 mg/kg/day in data set [3] (setting [20]); over 5500 mg/kg/day in data set [3] (setting [21]); over 8100 mg/kg/day in data set [4] (setting [22]). For the same compound, the NEL is 500 mg/kg/day in [1]; under 250 mg/kg/day in data set [2] (setting [18]); under 5500 mg/kg/day in data set [3] (setting [20]); under 5500 mg/kg/day in [3] (setting [21]); 900 mg/kg/day in data set [4] (setting [22]). Besides, the NOAEL (in general, the highest dose or exposure tested at which no adverse effect was seen) in [1] is at least 2500 mg/kg/day; in data set [2] (setting [19]), at least 2500 mg/kg/day; in data set [3] (setting [20]), at least 5500 mg/kg/day; in data set [3] (setting [21]) it was at least 5500 mg/kg/day; in [4] (setting [22]), at least 8100 mg/kg/day.

In data set [5], `CCOP(=S)(OCC)SCSC(C)(C)C` [Terbufos] had an LEL of 0.015 mg/kg/day, an LOAEL of 0.015 mg/kg/day, an NEL of under 0.015 mg/kg/day and a no-observed-adverse-effect level (NOAEL) of under 0.015 mg/kg/day.

On to `Oc1cccc(O)c1` [Resorcinol], for which the LOAEL in data set [6] (setting [23]) is over 233 mg/kg/day; in data set [7] (setting [25]) it was over 420 mg/kg/day; in [8] it was 225 mg/kg/day; in data set [9], over 500 mg/kg/day; in data set [10] (setting [26]) it was over 520 mg/kg/day; in [11], 100 mg/kg/day. In addition, the NEL was 31 mg/kg/day in data set [6] (setting [23]); under 28 mg/kg/day in [7] (setting [24]); 112 mg/kg/day in [8]; 250 mg/kg/day in data set [9]; under 32 mg/kg/day in data set [10] (setting [24]); 50 mg/kg/day in data set [11]. In addition, the NOAEL is at least 233 mg/kg/day in data set [6] (setting [23]); at least 420 mg/kg/day in data set [7] (setting [25]); 112 mg/kg/day in [8]; at least 500 mg/kg/day in [9]; at least 520 mg/kg/day in data set [10] (setting [26]); 50 mg/kg/day in data set [11]. In addition, the LEL in data set [6] (systemic / in life observation / water consumption / water consumption) turned out to be 86 mg/kg/day; in data set [7] (setting [24]) it was 28 mg/kg/day; in [8], 225 mg/kg/day; in data set [9], 500 mg/kg/day; in [10] (setting [24]) it was 32 mg/kg/day; in data set [11], 100 mg/kg/day.

In [12], `O=C(OC[C@H]1O[C@@H](OC(=O)c2cc(O)c(O)c(OC(=O)c3cc(O)c(O)c(O)c3)c2)[C@H](OC(=O)c2cc(O)c(O)c(OC(=O)c3cc(O)c(O)c(O)c3)c2)[C@@H](OC(=O)c2cc(O)c(O)c(OC(=O)c3cc(O)c(O)c(O)c3)c2)[C@@H]1OC(=O)c1cc(O)c(O)c(OC(=O)c2cc(O)c(O)c(O)c2)c1)c1cc(O)c(O)c(OC(=O)c2cc(O)c(O)c(O)c2)c1` [Tannic acid] returned an LEL of 131 mg/kg/day, an LOAEL of over 243 mg/kg/day, an NEL of under 131 mg/kg/day and an NOAEL of at least 243 mg/kg/day. In data set [13] (setting [27]), the LEL stood at 12000 mg/kg/day, the LOAEL is over 12000 mg/kg/day, the NEL was under 12000 mg/kg/day and the NOAEL is at least 12000 mg/kg/day. Also, in [13] (setting [28]), the LEL is 12000 mg/kg/day, the LOAEL was over 12000 mg/kg/day, the NEL is under 12000 mg/kg/day and the no observed adverse effect level (NOAEL) was at least 12000 mg/kg/day.

For `CCCCOC(=O)c1ccccc1C(=O)OCCCC` [Dibutyl phthalate], the LEL in [14] (setting [29]) is 531 mg/kg/day; in data set [14] (group: parental, systemic / organ weight / adrenal gland / relative to body weight), 5.35 mg/kg/day; in [14] (group: reproductive, reproductive / reproductive performance / estrous cycle / periodicity), 95.3 mg/kg/day; in data set [15] (setting [32]), 630 mg/kg/day; in data set [15] (setting [33]), 630 mg/kg/day; in data set [16] (setting [34]) it was 125 mg/kg/day. Besides, the LOAEL was over 531 mg/kg/day in data set [14] (setting [29]); over 531 mg/kg/day in [14] (setting [30]); over 1020 mg/kg/day in data set [14] (setting [31]); 630 mg/kg/day in data set [15] (group: developmental, systemic / in life observation / body weight / fetal weight); 630 mg/kg/day in [15] (setting [33]); over 2000 mg/kg/day in [16] (setting [35]). In addition, the NEL was 51.8 mg/kg/day in [14] (setting [29]); 1.61 mg/kg/day in [14] (setting [30]); 9.24 mg/kg/day in data set [14] (setting [31]); 500 mg/kg/day in data set [15] (setting [32]); 500 mg/kg/day in data set [15] (setting [33]); under 125 mg/kg/day in data set [16] (setting [34]). In addition, the NOAEL is at least 531 mg/kg/day in [14] (setting [29]); at least 531 mg/kg/day in [14] (setting [30]); at least 1020 mg/kg/day in data set [14] (setting [31]); 500 mg/kg/day in data set [15] (setting [32]); 500 mg/kg/day in data set [15] (setting [33]); at least 2000 mg/kg/day in data set [16] (setting [35]).

Turning to `C=Cc1ccccc1` [Styrene], in data set [17] (systemic / in life observation / body weight / body weight gain + systemic / in life observation / body weight / offspring (pup) weight), the LEL amounted to 150 ppm. The NEL in data set [17] (systemic / in life observation / body weight / body weight gain + systemic / in life observation / water consumption / water consumption) stood at 50 ppm. In addition, in data set [17] (setting [23]), the LOAEL was over 500 ppm and the NOAEL is at least 500 ppm.

Source of the values: EPA's ToxRefDB 2.
